Measured values taken from patent US20070213339A1 (Bayer Pharmaceuticals Corporation, priority 2004, published 2007).

System: Colo205 human colon carcinoma cell line
Assay: In vitro tumor cell proliferation assay (MTS, CellTiter 96 Aqueous One Solution)
Type: cell-based
Details: COLO 205, Colo205 cells, 72 hours compound exposure, MTS absorbance at 490 nm, read-out: IC50 (concentration of test compound required to inhibit proliferation of 50% of the cells)
In short: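 Proliferation measured as MTS tetrazolium reduction (490 nm) after 72 h compound exposure at 37 °C. Cells plated at 2000 per well in serum-supplemented RPMI-1640; duplicate 5-point dilutions topping out at 10-20 μM. Percent inhibition versus untreated and cell-free wells, IC50 derived by linear regression.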

| SMILES | IC50 |
| --- | --- |
| Cc1ccc(N2CCN(c3c(F)cc4c(=O)c(C(=O)O)cn(-c5ccc(CN6CCCC6)cc5)c4c3OC(F)(F)Cl)CC2)c(C)c1 [Example 150, 8-[chloro(difluoro)methoxy]-7-[4-(2,4-dimethylphenyl)piperazin-1-yl]-6-fluoro-4-oxo-1-[4-(pyrrolidin-1-ylmethyl)phenyl]-1,4-dihydroquinoline-3-carboxylic acid] | 500 to 2000 nM |
| CN(C)CCc1ccc(-n2cc(C(=O)O)c(=O)c3cc(F)c(N4CCN(c5ncccn5)CC4)c(Cl)c32)cc1 [Example 71, 8-chloro-1-{4-[2-(dimethylamino)ethyl]phenyl}-6-fluoro-4-oxo-7-(4-pyrimidin-2-ylpiperazin-1-yl)-1,4-dihydroquinoline-3-carboxylic acid] | 2000 to 20000 nM |
| Cc1cccc(N2CCN(c3c(F)cc4c(=O)c(C(=O)O)cn(-c5ccc(CN6CCCC6)cc5F)c4c3Cl)CC2)n1 [Example 175, 8-chloro-6-fluoro-1-(2-fluoro-4-pyrrolidin-1-ylmethyl-phenyl)-7-[4-(6-methylpyridine-2-yl)-piperazine-1-yl]-4-oxo-1,4-dihydroquinoline-3-carboxylic acid] | < 500 nM |
| N#Cc1ccccc1N1CCN(c2c(F)cc3c(=O)c(C(=O)O)cn(-c4ccc(CN5CCCC5)c(F)c4)c3c2Cl)CC1 [Example 185, 8-chloro-7-[4-(2-cyanophenyl)-piperazine-1-yl]-6-fluoro-1-(3-fluoro-4-pyrrolidin-1-ylmethyl-phenyl)-4-oxo-1,4-dihydroquinoline-3-carboxylic acid] | < 500 nM |
| Cc1cccnc1N1CCN(c2c(F)cc3c(=O)c(C(=O)O)cn(-c4ccc(CN5CCCC5)cc4)c3c2OC(F)(F)F)CC1 [Example 122, 6-fluoro-7-[4-(3-methylpyridin-2-yl)-piperazin-1-yl]-4-oxo-1-[4-(pyrrolidin-1-ylmethyl)phenyl]-8-(trifluoromethoxy)-1,4-dihydroquinoline-3-carboxylic acid] | < 500 nM |
| CCN(CC)Cc1ccc(-n2cc(C(=O)O)c(=O)c3cc(F)c(N4CCN(c5ccccc5C#N)CC4)c(OC)c32)cc1 [Example 117, 7-[4-(2-cyanophenyl)piperazin-1-yl]-1-{4-[(diethylamino)methyl]phenyl}-6-fluoro-8-methoxy-4-oxo-1,4-dihydroquinoline-3-carboxylic acid] | < 500 nM |
| Cc1cccnc1N1CCN(c2c(F)cc3c(=O)c(C(=O)O)cn(-c4ccc(CN(C)C)cc4)c3c2OC(F)(F)F)CC1 [Example 129, 1-{4-[(dimethylamino)methyl]phenyl}-6-fluoro-7-[4-(3-methylpyridin-2-yl)piperazin-1-yl]-4-oxo-8-(trifluoromethoxy)-1,4-dihydroquinoline-3-carboxylic acid] | 500 to 2000 nM |
| N#Cc1cccnc1N1CCN(c2c(F)cc3c(=O)c(C(=O)O)cn(-c4ccc(CN5CCCC5)c(F)c4)c3c2Cl)CC1 [Example 184, 8-chloro-7-[4-(3-cyanopyridin-2-yl)-piperazine-1-yl]-6-fluoro-1-(3-fluoro-4-pyrrolidin-1-ylmethyl-phenyl)-4-oxo-1,4-dihydroquinoline-3-carboxylic acid] | < 500 nM |
| COc1c(N2CCN(c3ncccn3)CC2)c(F)cc2c(=O)c(C(=O)O)cn(-c3ccc(CN(C)C)cc3)c12 [Example 96, 1-{4-[(dimethylamino)methyl]phenyl}-6-fluoro-8-methoxy-4-oxo-7-(4-pyrimidin-2-ylpiperazin-1-yl)-1,4-dihydroquinoline-3-carboxylic acid] | < 500 nM |
| O=C(O)c1cn(-c2ccc(CNCC3CCCCC3)cc2)c2c(Cl)c(N3CCN(c4ncccn4)CC3)c(F)cc2c1=O [Example 190, 8-chloro-1-{4-[(4-cyclohelmethyl-amino)-methyl]-phenyl}-6-fluoro-4-oxo-7-(4-pyrimidin-2-yl-piperazin-1-yl)-1,4-dihydroquinoline-3-carboxylic acid] | 2000 to 20000 nM |
| O=C(O)c1cn(-c2ccc(CN3CCCC3)cc2F)c2c(Cl)c(N3CCN(c4ccccn4)CC3)c(F)cc2c1=O [Example 46, 8-chloro-6-fluoro-1-[2-fluoro-4-(pyrrolidin-1-ylmethyl)phenyl]-4-oxo-7-(4-pyridin-2-ylpiperazin-1-yl)-1,4-dihydroquinoline-3-carboxylic acid] | 500 to 2000 nM |
| CCN(CC)Cc1ccc(-n2cc(C(=O)O)c(=O)c3cc(F)c(N4CCN(c5ccccc5F)CC4)c(OC)c32)cc1 [Example 114, 1-{4-[(diethylamino)methyl]phenyl}-6-fluoro-7-[4-(2-fluorophenyl)piperazin-1-yl]-8-methoxy-4-oxo-1,4-dihydroquinoline-3-carboxylic acid] | < 500 nM |
| CCN(CC)Cc1ccc(-n2cc(C(=O)O)c(=O)c3cc(F)c(N4CCN(c5cc(Cl)ccc5C)CC4)c(OC(F)(F)F)c32)cc1 [Example 134, 7-[4-(5-chloro-2-methylphenyl)piperazin-1-yl]-1-{4-[(diethylamino)methyl]phenyl}-6-fluoro-4-oxo-8-(trifluoromethoxy)-1,4-dihydroquinoline-3-carboxylic acid] | 500 to 2000 nM |
| N#Cc1c(N2CCN(c3ccccn3)CC2)c(F)cc2c(=O)c(C(=O)O)cn(-c3ccc(CN4CCCC4)cc3)c12 [Example 169, 8-cyano-6-fluoro-4-oxo-7-(4-pyridin-2-ylpiperazin-1-yl)-1-[4-(pyrrolidin-1-ylmethyl)phenyl]-1,4-dihydroquinoline-3-carboxylic acid] | 500 to 2000 nM |
| CN(C)Cc1ccc(-n2cc(C(=O)O)c(=O)c3cc(F)c(N4CCN(c5ccccn5)CC4)c(OC(F)(F)F)c32)cc1 [Example 126, 1-{4-[(dimethylamino)methyl]phenyl}-6-fluoro-4-oxo-7-(4-pyridin-2-ylpiperazin-1-yl)-8-(trifluoromethoxy)-1,4-dihydroquinoline-3-carboxylic acid] | < 500 nM |
| CCN(CC)Cc1ccc(-n2cc(C(=O)O)c(=O)c3cc(F)c(N4CCN(c5ncccn5)CC4)c(OC(F)(F)Cl)c32)cc1 [Example 160] | 500 to 2000 nM |

Results, then the molecule that gave them:

| IC50 | SMILES |
| --- | --- |
| 500 to 2000 nM | COc1cc(CNC2CCCC2)ccc1-n1cc(C(=O)O)c(=O)c2cc(F)c(N3CCN(c4ccc(F)cc4)CC3)c(Cl)c21 [Example 179, 8-chloro-1-(4-cyclopentylaminomethyl-2-methoxyphenyl)-6-fluoro-7-[4-(4-fluorophenyl)-piperazine-1-yl]-4-oxo-1,4-dihydroquinoline-3-carboxylic acid] |
| < 500 nM | COc1cc(CN2CCCCC2)ccc1-n1cc(C(=O)O)c(=O)c2cc(F)c(N3CCN(c4ccc(F)cc4)CC3)c(Cl)c21 [Example 177, 8-chloro-6-fluoro-7-[4-(4-fluorophenyl)-piperazine-1-yl]-1-(2-methoxy-4-piperidine-1-ylmethyl-phenyl)-4-oxo-1,4-dihydroquinoline-3-carboxylic acid] |
| < 500 nM | O=C(O)c1cn(-c2ccc(CN3CCCC3)cc2F)c2c(Cl)c(N3CCN(c4ccc(F)cc4)CC3)c(F)cc2c1=O [Example 41, 8-chloro-6-fluoro-7-[4-(4-fluorophenyl)-piperazin-1-yl]-1-[2-fluoro-4-(pyrrolidin-1-ylmethyl)phenyl]-4-oxo-1,4-dihydroquinoline-3-carboxylic acid] |
| < 500 nM | CN(C)Cc1ccc(-n2cc(C(=O)O)c(=O)c3cc(F)c(N4CCN(c5ccc(Cl)cc5)CC4)c(OC(F)(F)Cl)c32)cc1 [Example 156, 8-[chloro(difluoro)methoxy]-7-[4-(4-chlorophenyl)piperazin-1-yl]-1-{4-[(dimethylamino)methyl]phenyl}-6-fluoro-4-oxo-1,4-dihydroquinoline-3-carboxylic acid] |
| < 500 nM | O=C(O)c1cn(-c2ccc(CNC3CCC3)cc2)c2c(Cl)c(N3CCN(c4ccccn4)CC3)c(F)cc2c1=O [Example 58, 8-chloro-1-{4-[(cyclobutylamino)methyl]-phenyl}-6-fluoro-4-oxo-7-(4-pyridin-2-ylpiperazin-1-yl)-1,4-dihydroquinoline-3-carboxylic acid] |
| < 500 nM | O=C(O)c1cn(-c2ccc(CNC3CCCC3)cc2)c2c(OC(F)(F)F)c(N3CCN(c4ccc(F)cc4)CC3)c(F)cc2c1=O [Example 182, 1-(4-cyclopentylaminomethyl-phenyl)-6-fluoro-7-[4-(4-fluorophenyl)-piperazine-1-yl]-4-oxo-8-trifluoromethoxy-1,4-dihydroquinoline-3-carboxylic acid] |
| < 500 nM | CC1CCCN1Cc1ccc(-n2cc(C(=O)O)c(=O)c3cc(F)c(N4CCN(c5ccc(F)cc5)CC4)c(Cl)c32)cc1 (centres unmarked) [Example 18, 8-chloro-6-fluoro-7-[4-(4-fluorophenyl)-piperazin-1-yl]-1-{4-[(2-methylpyrrolidin-1-yl)methyl]phenyl}-4-oxo-1,4-dihydroquinoline-3-carboxylic acid] |
| < 500 nM | N#Cc1ccccc1N1CCN(c2c(F)cc3c(=O)c(C(=O)O)cn(-c4ccc(CN5CCCC5)cc4)c3c2Cl)CC1 [Example 4, 8-chloro-6-fluoro-7-[4-(2-cyanophenyl)-piperazin-1-yl]-4-oxo-1-[4-(pyrrolidin-1-ylmethyl)phenyl]1,4-dihydroquinoline-3-carboxylic acid] |
| 500 to 2000 nM | CCOc1ccccc1N1CCN(c2c(F)cc3c(=O)c(C(=O)O)cn(-c4ccc(CN5CCCC5)cc4)c3c2Cl)CC1 [Example 16, 8-chloro-7-[4-(2-ethoxyphenyl)piperazin-1-yl]-6-fluoro-4-oxo-1-[4-(pyrrolidin-1-ylmethyl)phenyl]-1,4-dihydroquinoline-3-carboxylic acid] |
| < 500 nM | CN(C)Cc1ccc(-n2cc(C(=O)O)c(=O)c3cc(F)c(N4CCN(c5ccc(F)cc5)CC4)c(OC(F)(F)F)c32)cc1 [Example 131, 1-{4-[(dimethylamino)methyl]phenyl}-6-fluoro-7-[4-(4-fluorophenyl)piperazin-1-yl]-4-oxo-8-(trifluoromethoxy)-1,4-dihydroquinoline-3-carboxylic acid] |
